Experimental data: patent US4764464A, “Semisynthetic enzymes: apoproteins from heme proteins as hydrolases” (priority 1986, dated 1988)

Experiments:
apomyoglobin = molecular target: T1, apomyoglobin (Physeter macrocephalus, UniProt P02185); assay: Hydrolysis of p-nitrophenyl alkanoates catalysed by apomyoglobin (absorbance at 400 nm); type: biochemical, sperm whale; details: for k2 /KM (catalytic constant) / k2 /Kun (enhancement over rate in the absence of apomyoglobin) / K2 / kobs: 25° C.; for k2 /KM (catalytic constant) / k2 /Kun (enhancement over rate in the absence of apomyoglobin) / K2: pH 8; for K2: Lineweaver Burk; for kobs: pH 8, 0.05 M TRIS
T1 construct: purchased
Experimental: Preparation of Apomylglobin. The heme group was removed from sperm whale metmyoglobin by the acid acetone method of Rossi-Fanelli and coworkers, op. cit., from a commercially available sample which was not purified prior to use.
(§1) Hydrolysis of p-Nitrophenyl Alkanoates. The experimental methods used in the hydrolysis of these esters is exemplified by the hydrolysis of p-nitrophenyl caproate. Kinetic runs were performed with the semisynthetic enzyme, apomyoglobin, in excess of the substrate. All hydrolyses were done in 99.9% aqueous media at 25° C. at pH 8 using 0.05 molar tris(hydroxymethyl)aminomethane(TRIS) as a buffer. Each sample cuvette containing varying concentrations of apomyoglobin (Eo) in 1 ml of 0.05M buffer was allowed to equilibrate at 25° C. in a thermostated cell holder of a spectrophotometer. To this was added 1 microliter of 1.13×10^-2 M p-nitrophenyl caproate in ethanol and the contents thereafter were mixed well. The increase in absorbance at 400 nm arising from the p-nitrophenolate ion was monitored as a function of time until hydrolysis was complete.
(§2) In the absence of apomyoglobin the hydrolysis of a solution of 1.13×10^-5 M of the same ester under the same conditions proceeded with the rate constant of 2.7×10^-5 sec^-1. The enhancement achieved with the semisynthetic enzyme is therefore 1800.
Where the same type of experiment yielded a decrease in catalysis rate in those instances the deacylation may become rate limiting. Some results of ester hydrolysis catalyzed by apomyoglobin are summarized in Table 2, where k2 /kM is often referred to as the "catalytic constant," and kun is the hydrolytic rate constant in the absence of apomyoglobin.

[1] = tested on: apomyoglobin (denatured, 8 molar urea); assay: Hydrolysis of p-nitrophenyl acetate with apomyoglobin denatured in 8 molar urea; type: biochemical, sperm whale; details: after 150 seconds, apomyoglobin solution also 8 molar in urea
Experimental: To ascertain that our remarkable catalytic rates result from the active site only of the empty heme pocket or cavity the following experiments were performed. In the first experiment reconstituted myoglobin was prepared from apomyoglobin and hemin, and the hydrolysis of p-nitrophenyl caproate was determined as previously described. […] This eliminates the possibility that periperal lysine and histidine residues catalyze hydrolysis. In the second experiment the rate of hydrolysis of a solution of p-nitrophenyl acetate in buffer containing apomyoglobin, prepared as described above, was compared with the rate of hydrolysis in a similar solution which was also 8 molar in urea to ensure denaturation of apomyoglobin. After 150 seconds the reaction was 98% complete in the first solution, but only 2% complete in the urea-containing solution.

[2] = Hydrolysis of the ester in the absence of apomyoglobin (spontaneous rate); type: physicochemical; details: 1.13×10^-5 M ester, 25° C., pH 8, 0.05 M TRIS
Experimental: as §1, §2

reconstituted myoglobin = assay: Hydrolysis of p-nitrophenyl caproate with reconstituted myoglobin (apomyoglobin and hemin); type: biochemical, sperm whale; details: reconstituted myoglobin from apomyoglobin and hemin
Experimental: as §1
To ascertain that our remarkable catalytic rates result from the active site only of the empty heme pocket or cavity the following experiments were performed. In the first experiment reconstituted myoglobin was prepared from apomyoglobin and hemin, and the hydrolysis of p-nitrophenyl caproate was determined as previously described. […] This eliminates the possibility that periperal lysine and histidine residues catalyze hydrolysis. […]

[3] = Denaturation (stability) of the apoprotein under reaction conditions; type: physicochemical, sperm whale
Experimental: The reaction temperature also is dictated by stability of the semisynthetic enzyme. When apoprotein derived from, e.g., sperm whale myoglobin is used, it often is denatured substantially at a temperature in excess of about 40° C., and consequently its use is recommended at a temperature under about 40° C. However, it needs to be emphasized that even where the semisynthetic enzyme is denatured at a higher temperature it can be used so long as its denaturation is slower than hydrolysis, although no reuse may be possible.
Finally, the pH at which the hydrolysis is performed also is dictated by the denaturation properties of the semisynthetic enzyme. For example, where the apoprotein is derived from sperm whale myoglobin a pH range between about 6.5 and about 9 is found to cause little if any denaturation.

T1 sequence (P02185 whole entry): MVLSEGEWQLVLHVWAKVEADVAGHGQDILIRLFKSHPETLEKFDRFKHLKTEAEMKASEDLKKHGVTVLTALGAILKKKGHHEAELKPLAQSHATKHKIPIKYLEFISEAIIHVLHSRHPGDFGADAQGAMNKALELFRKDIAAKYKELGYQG

| k2 /KM (catalytic constant) (apomyoglobin) | k2 /Kun (enhancement over rate in the absence of apomyoglobin) (apomyoglobin) | K2 (apomyoglobin) | Molecule | other results |
| --- | --- | --- | --- | --- |
| 6.4 M⁻¹ s⁻¹ | 42 |  | CCC(=O)Oc1ccc([N+](=O)[O-])cc1 |  |
| 13.5 M⁻¹ s⁻¹ | 134 | 0.0058 s⁻¹ | CC(=O)Oc1ccc([N+](=O)[O-])cc1 [Acetate, p-nitrophenyl acetate] | rate of hydrolysis by 5×10^-5 M apomyoglobin versus apomyoglobin first reacted with 5×10^-5 M ester to 95% completion (apomyoglobin; 1×10^-5 M ester): identical; reaction completion (apomyoglobin; after 150 seconds, buffer containing apomyoglobin): 98%; Turnover (k3 versus k2) (apomyoglobin; rate with fresh apomyoglobin compared with pre-reacted apomyoglobin): k3 is much greater than k2; reaction completion [1]: 2% |
| 26.4 M⁻¹ s⁻¹ | 127 | 0.0038 s⁻¹ | CCCC(=O)Oc1ccc([N+](=O)[O-])cc1 [Butyrate] |  |
| 49 M⁻¹ s⁻¹ | 4600 | 0.03 s⁻¹ | CCCCCCCCCC(=O)Oc1ccc([N+](=O)[O-])cc1 [Caprate] |  |
| 67 M⁻¹ s⁻¹ | 1800 | 0.0493 s⁻¹ | CCCCCC(=O)Oc1ccc([N+](=O)[O-])cc1 [Caproate, p-nitrophenyl caproate] | kobs (apomyoglobin; Eo 2.11 (10^-5 M) apomyoglobin): 1.08 10^-2 sec^-1; kobs (apomyoglobin; Eo 4.23 (10^-5 M) apomyoglobin): 1.84 10^-2 sec^-1; kobs (apomyoglobin; Eo 6.35 (10^-5 M) apomyoglobin): 2.21 10^-2 sec^-1; kobs (apomyoglobin; Eo 8.46 (10^-5 M) apomyoglobin): 2.63 10^-2 sec^-1; kobs (apomyoglobin; Eo 10.6 (10^-5 M) apomyoglobin): 2.83 10^-2 sec^-1; K2 (apomyoglobin; listed as p-nitrophenyl caproate): 0.0493 s⁻¹; rate constant of hydrolysis in the absence of apomyoglobin [2]: 2.7e-05 s⁻¹; hydrolysis rate relative to the spontaneous (uncatalyzed) rate (reconstituted myoglobin): not more than twice that of the spontaneous (uncatalyzed) rate |
|  |  |  | apoprotein derived from, e.g., sperm whale myoglobin: sperm whale metmyoglobin from which the heme group was removed by the acid acetone method; semisynthetic esterase | temperature above which substantially denatured [3]: > 40 °C |
